The supplement of paper PMC8967900

Experiments:
Assay in all cases: selective drug sensitivity score (sDSS, relative to normal bone marrow) (sDSS (score)); higher = more potent and effective on the cell line relative to normal bone marrow cells
Conditions in all cases: 72 h
COG-LL-355h = system: COG-LL-355h
DND-41 = system: DND-41
CCRF-CEM = system: CCRF-CEM
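Also: ALL cell lines in 384-well plates, five doses spanning 10,000-fold, each plate scaled between vehicle and 100 µmol/L benzalkonium chloride controls, sDSS an adapted area-under-curve metric.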

SMILES	selective drug sensitivity score (COG-LL-355h)	selective drug sensitivity score (DND-41)	selective drug sensitivity score (CCRF-CEM)
CNC(=O)c1cccc2cc(Oc3ccnc4cc(OCC5(N)CC5)c(OC)cc34)ccc12 [Lucitanib] (top concentration 10000 nM)	-0.62	5.08	3.08
Cc1nc(C(=O)NCC(=O)O)c(O)c2ccc(Oc3ccccc3)cc12 [Roxadustat] (top concentration 10000 nM)	-1.12	-1.12	-1.02
NC(=O)c1cccc(-c2cccc(OC(=O)NC3CCCCC3)c2)c1 [URB597] (top concentration 1000 nM)	-0.06	-0.26	-0.46
Nc1ncnc2c1c(COc1cccc(Cl)c1)nn2C1CCOCC1 (top concentration 10000 nM)	2.06	-0.64	-0.44
Nc1nc(N)c2nc(-c3cccc(O)c3)c(-c3cccc(O)c3)nc2n1 [TG100-115] (top concentration 10000 nM)	3.7	0.1	0.4
C[C@@H](Oc1cc(-c2cnn(C3CCNCC3)c2)cnc1N)c1c(Cl)ccc(F)c1Cl [Crizotinib] (top concentration 1000 nM)	2.16	-0.54	-0.54
CCc1cc2c(cc1N1CCC(N3CCOCC3)CC1)C(C)(C)c1[nH]c3cc(C#N)ccc3c1C2=O [Alectinib] (top concentration 1000 nM)	-0.02	0.08	0.18
Cc1cccc(-c2nn3c(c2-c2ccnc4ccc(C(N)=O)cc24)CCC3)n1 [Galunisertib] (top concentration 1000 nM)	0	0	0
CN1CCC(COc2cnc(-c3cccc(Cn4nc(-c5cccc(C#N)c5)ccc4=O)c3)nc2)CC1 [Tepotinib] (top concentration 1000 nM)	-0.08	-0.08	-0.08
C/C(=C\c1csc(C)n1)[C@@H]1C[C@@H]2O[C@]2(C)CCC[C@H](C)[C@H](O)[C@@H](C)C(=O)C(C)(C)[C@@H](O)CC(=O)N1 [Ixabepilone] (top concentration 1000 nM)	2.48	1.28	3.08
CNC(=O)c1ccc2cc([C@@]3(O)CCn4cncc43)ccc2c1 [Orteronel] (top concentration 10000 nM)	0	0	0
Cc1cc(C)c(CNC(=O)c2cc(-c3ccc(CN4CCOCC4)cc3)cc3c2cnn3C2CCCC2)c(=O)[nH]1 [EPZ-5687] (top concentration 10000 nM)	-0.36	-0.36	0.14
CC(C)n1cnc2c(NCCc3ccc(O)cc3)nc(-c3csc4ccccc34)nc21 [StemRegenin_1] (top concentration 10000 nM)	-0.1	4.5	1.4
COc1cccc(-c2ccc(NC(=O)C3=C(C(=O)O)CCC3)c(F)c2)c1 [Vidofludimus] (top concentration 10000 nM)	0	5.3	3.1
CN(C)C[C@@H]1CCn2cc(c3ccccc32)C2=C(C(=O)NC2=O)c2cn(c3ccccc23)CCO1 [Ruboxistaurin] (top concentration 10000 nM)	1.26	-0.44	-0.34
O=C1CN2Cc3c(ccc(Cl)c3Cl)N=C2N1 [Anagrelide] (top concentration 10000 nM)	4.6	0	0
O=C(Nc1cccnc1)N1CCC(Cc2cccc(Oc3ccc(C(F)(F)F)cn3)c2)CC1 [PF-3845] (top concentration 10000 nM)	-0.54	-0.24	-0.44
COc1cc2/c(=N/c3ccc(Br)cc3F)nc[nH]c2cc1OCC1CCN(C)CC1 [Vandetanib] (top concentration 1000 nM)	-0.22	-0.22	-0.22
Oc1ncnc2[nH]ncc12 [Allopurinol] (top concentration 10000 nM)	-0.64	-0.64	-0.24
CCNC(=O)CCC/C=C\C[C@@H]1[C@@H](/C=C/[C@@H](O)CCc2ccccc2)[C@H](O)C[C@@H]1O [Bimatoprost] (top concentration 5500 nM)	0	5.6	0
C[C@@H]1C[C@H]2[C@@H]3CCC4=CC(=O)C=C[C@]4(C)[C@@]3(F)[C@@H](O)C[C@]2(C)[C@@]1(O)C(=O)CO [Dexamethasone] (top concentration 10000 nM)	30.7	36.3	13.9
COc1cc(NS(C)(=O)=O)ccc1Nc1c2ccccc2nc2ccccc12 [Amsacrine] (top concentration 10000 nM)	11	4.16	15.1
CCN(CC)CCN(Cc1ccc(-c2ccc(C(F)(F)F)cc2)cc1)C(=O)Cn1c(SCc2ccc(F)cc2)nc(=O)c2c1CCC2 [Darapladib] (top concentration 1000 nM)	-1.42	-0.72	-1.42
CC(C)(C)C[C@@H]1N[C@@H](C(=O)N[C@H]2CC[C@H](O)CC2)[C@H](c2cccc(Cl)c2F)[C@]12C(=O)Nc1cc(Cl)ccc12 (top concentration 10000 nM)	8.46	-3.84	-3.94
COc1cc(C)[nH]c(=O)c1CNC(=O)c1c(C)n([C@H](C)C2CCOCC2)c2ccccc12 [CPI-360] (top concentration 10000 nM)	0	0	0
CCN(CC)CCCC(C)Nc1ccnc2cc(Cl)ccc12 (stereo unspecified) [Chloroquine] (top concentration 100000 nM)	-0.34	-0.94	-2.94
COC(=O)c1ccc([C@H]2c3[nH]c4ccccc4c3C[C@H](C(=O)OC)N2C(=O)CCl)cc1 [RSL3] (top concentration 10000 nM)	3.8	0	0.2
